The target of the assay is T1, human TPO receptor (Homo sapiens, UniProt P40238).
T1 construct: expressed in transfected cells
T1 sequence (P40238 26-635): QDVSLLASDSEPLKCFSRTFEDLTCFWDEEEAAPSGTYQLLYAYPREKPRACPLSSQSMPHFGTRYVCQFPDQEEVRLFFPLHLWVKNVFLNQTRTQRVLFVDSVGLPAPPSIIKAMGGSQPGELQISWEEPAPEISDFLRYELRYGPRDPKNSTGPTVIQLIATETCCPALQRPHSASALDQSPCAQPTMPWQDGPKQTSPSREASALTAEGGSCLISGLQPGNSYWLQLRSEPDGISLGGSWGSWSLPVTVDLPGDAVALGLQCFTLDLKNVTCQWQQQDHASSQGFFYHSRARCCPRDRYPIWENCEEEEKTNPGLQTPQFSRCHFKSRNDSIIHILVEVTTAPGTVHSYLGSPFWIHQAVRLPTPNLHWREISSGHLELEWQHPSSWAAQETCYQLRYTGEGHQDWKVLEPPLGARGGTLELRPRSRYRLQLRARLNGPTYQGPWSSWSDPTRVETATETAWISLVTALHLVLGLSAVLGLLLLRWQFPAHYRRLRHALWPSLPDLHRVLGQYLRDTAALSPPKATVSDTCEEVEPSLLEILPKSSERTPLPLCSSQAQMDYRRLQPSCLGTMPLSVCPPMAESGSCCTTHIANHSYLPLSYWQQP
Nature of the assay: Proliferation of TPO-dependent cell line UT7/EPO-mpl, MTT method (Assay Examples 1, 3, 4). The assay is classed as cell-based. To be noted: UT7/EPO-mpl cells; for Emax / Efficacy (%) (maximal growth rate): value in the presence of 10 ng/ml TPO taken as 100% standard, method of Assay Example 1; for Emax: read-out: Efficacy (%) (maximal growth rate); for EC50: concentration giving 50% of the maximum cell growth observed with the same compound. The protocol:
The reactivity of Synthetic Example 56, the compound of the present invention, with thrombopoietin (TPO) receptor was assayed using a human leukemic cell line, UT7/EPO-mpl.
UT7/EPO-mpl is a stable transformed cell line obtained by introducing into human leukemic cell line UT7/EPO a vector that induces expression of human TPO receptor (c-mp1) under control of a cytomegaloviral promoter by the method of Takatoku et al. (J. Biol. Chem., 272:7259-7263 (1997)). […] These two cell lines were subcultured in Iscove's modified Dulbecco's medium (IMDM; GIBCO) containing 10% fetal bovine serum (FBS; TRACE SCIENTIFIC) using a CO2 incubator (5% CO2, 37° C.).
The subcultured cells described above were washed twice with phosphate buffered saline (PBS) and suspended in IMDM containing 10% FBS at a cell density of 6×10^4 cells/ml. The cell suspension was transferred to a 96-well tissue culture plate (CORNING) in 100-μl aliquots. Then either TPO (PeproTech EC) or Synthetic Example 56 dissolved in dimethylsulfoxide (DMSO) was diluted 83-fold with IMDM containing 10% FBS and added to the aforementioned cell suspension in 20-μl aliquots. The suspension was incubated in a CO2 incubator (5% CO2, 37° C.) for 4 days. Cell proliferation was assayed according to the method of Mosmann et al. (J. Immunol. Methods, 65:55-63 (1983)). A 10-μl aliquot of 5 mg/ml MTT reagent (SIGMA) was added to each well of the tissue culture plate and the plate was incubated at 37° C. for 4 h. The formazan pigment generated was dissolved by adding 150 μl per well of 0.1 M HCl/isopropanol solution and the absorbance of the resulting pigment solution was measured at 550 nm with a 96-well microplate reader (BIO-RAD, M450).
The following Synthetic Examples were tested according to the method of Assay Example 1 to determine the maximal growth rate (efficacy), expressed by taking the value with human leukemic cell line UT7/EPO-mpl observed in the presence of 10 ng/ml TPO as 100% standard, and the concentration of each compound that yields a growth rate corresponding to 50% of the maximum cell growth observed with the same compound (EC50).
Synthetic Example 56, the compound of the present invention, and four compounds (Reference Synthetic Examples 1 to 4) described in a publication of international patent application (Publication No. WO01/34585, applied by SmithKline Beecham Corp.) were tested according to the method of Assay Example 1.

Setting [1] is: read-out: EC50 (ng/ml) (converted).

Read-outs that look alike come from different tables or passages of the source.

Regarding `Cc1ccc(-n2nc(C)c(C=NN3C(=O)C(=Cc4cccc(C(=O)O)c4)SC3=S)c2O)cc1C` [Reference Synthetic Example 2, 5-(3-carboxybenzylidene)-3-[(1-{3,4-dimethylphenyl}-5-hydroxy-3-methyl-1H-pyrazol-4-ylmethylene)amino]-2-thioxothiazolidin-4-one, reference compound], the Emax turned out to be 12%. As for `CC1=NN(c2ccc(C)c(C)c2)C(=O)C1=C(C)NNC(=O)c1ccc(O)c(O)c1` [compound 57], the “EC50” value worked out at 0.0059 µg/mL and the “Efficacy (%) (maximal growth rate)” value stood at 97%. With `CC1=NN(c2cccc(C(F)(F)F)c2)C(=O)C1=C(C)NNC(=O)c1ccc([N+](=O)[O-])cc1` [compound 52], the Emax stood at 22%. For the same compound, the EC50 under setting [1] was 268 nM. As for `CC1=NN(c2ccc(Cl)c(Cl)c2)C(=O)C1=C(C)NNC(=O)c1cc2ccccc2cc1O` [compound 63], the “EC50” value was found to be 0.19 µg/mL and the “Efficacy (%) (maximal growth rate)” value is listed as 21%. Consider `CC1=NN(c2cccc([N+](=O)[O-])c2)C(=O)C1=C(C)NNC(=O)c1ccc(O)cc1O` [compound 86], for which the “EC50” value was found to be 0.021 µg/mL and the “Efficacy (%) (maximal growth rate)” value is on record as 105%. The corresponding values for `CC1=NN(c2ccc(C(C)(C)C)cc2)C(=O)C1=C(C)NNC(=O)c1ccc([N+](=O)[O-])cc1` [compound 29] are 0.23 µg/mL and 67%. In the case of `CC1=NN(c2ccc(C(C)(C)C)cc2)C(=O)C1=C(C)NNC(=O)c1ccc(C(C)(C)C)cc1` [compound 72], the “EC50” value stood at 0.075 µg/mL and the “Efficacy (%) (maximal growth rate)” value was determined as 88%. Regarding `CC1=NN(c2ccc(I)cc2)C(=O)C1=C(C)NNC(=O)c1ccc([N+](=O)[O-])cc1` [compound 44], the “EC50” value worked out at 0.25 µg/mL and the “Efficacy (%) (maximal growth rate)” value turned out to be 26%. Consider `CC1=NN(c2ccc(C(C)(C)C)cc2)C(=O)C1=C(C)NNC(=O)c1cccc(C(=O)O)c1` [compound 12], for which the “EC50” value stood at 0.076 µg/mL and the “Efficacy (%) (maximal growth rate)” value is 100%. For `CC1=NN(c2ccc(Cl)c(Cl)c2)C(=O)C1=C(C)NNC(=O)c1ccc(C(C)(C)C)cc1` [compound 80], the “EC50” value worked out at 0.64 µg/mL and the “Efficacy (%) (maximal growth rate)” value was 71%. With `CC1=NN(c2ccc(C(C)(C)C)cc2)C(=O)C1=C(C)NNC(=O)c1cc2ccccc2cc1O` [compound 25], the “EC50” value came to 0.2 µg/mL and the “Efficacy (%) (maximal growth rate)” value amounted to 54%.

Regarding `CC1=NN(c2ccc(C)c(C)c2)C(=O)C1=C(C)NNC(=O)c1ccccc1O` [compound 53], the Emax came out at 120%. In addition, under setting [1], the EC50 was 31.7 nM. For `CC1=NN(c2ccc(C(C)(C)C)cc2)C(=O)C1=C(C)NNC(=O)c1ccc(O)c(O)c1` [compound 27], the “EC50” value came to 0.0056 µg/mL and the “Efficacy (%) (maximal growth rate)” value is reported as 75%. As to `CC1=NN(c2ccc(Cl)c(Cl)c2)C(=O)C1=C(C)NNC(=O)c1cccc([N+](=O)[O-])c1` [compound 67], the “EC50” value was 0.033 µg/mL and the “Efficacy (%) (maximal growth rate)” value was determined as 80%.

In the case of `CC1=NN(c2ccc(C(F)(F)F)cc2)C(=O)C1=C(C)NNC(=O)c1ccc(N)cc1` [compound 92], the “EC50” value came to 0.0055 µg/mL and the “Efficacy (%) (maximal growth rate)” value is on record as 82%. Take `CC1=NN(c2cccc(C(F)(F)F)c2)C(=O)C1=C(C)NNC(=O)c1ccccc1O` [compound 45]: the “EC50” value was determined as 0.03 µg/mL and the “Efficacy (%) (maximal growth rate)” value is 74%. For `CC1=NN(c2ccc(C)c(C)c2)C(=O)C1=C(C)NNC(=O)c1cc2ccccc2cc1O` [compound 55], in that order: 0.22 µg/mL and 53%.

`CC1=NN(c2ccccc2)C(=O)C1=C(C)NNC(=O)c1cc2ccccc2cc1O` [compound 18]: the “EC50” value was 0.055 µg/mL and the “Efficacy (%) (maximal growth rate)” value was 94%. In the case of `CC1=NN(c2ccc(C(C)(C)C)cc2)C(=O)C1=C(C)NNC(=O)c1ccc(C(F)(F)F)cc1` [compound 71], the “EC50” value stood at 0.069 µg/mL and the “Efficacy (%) (maximal growth rate)” value was 89%. For `CC1=NN(c2ccc(C)c(C)c2)C(=O)C1=C(C)NNC(=O)c1ccc(O)cc1O` [compound 56], the “EC50” value stood at 0.0011 µg/mL and the “Efficacy (%) (maximal growth rate)” value was 96%. Turning to `CC1=NN(c2ccc(C(F)(F)F)cc2)C(=O)C1=C(C)NNC(=O)c1ccc(O)c(O)c1` [compound 34], the “EC50” value was 0.0052 µg/mL and the “Efficacy (%) (maximal growth rate)” value was 99%. With `CC1=NN(c2ccc(C(C)(C)C)cc2)C(=O)C1=C(C)NNC(=O)c1ccc(O)cc1` [compound 24], the “EC50” value turned out to be 0.0072 µg/mL and the “Efficacy (%) (maximal growth rate)” value was found to be 89%. As for `CC1=NN(c2ccc(Cl)c(Cl)c2)C(=O)C1=C(C)NNC(=O)c1cccc(O)c1` [compound 83], the Emax was found to be 78%. Moreover, the EC50 under setting [1] is 14.5 nM. On to `CC1=NN(c2ccccc2)C(=O)C1=C(C)NNC(=O)c1ccc(O)cc1` [compound 17], for which the “EC50” value was 0.079 µg/mL and the “Efficacy (%) (maximal growth rate)” value was 73%.

As to `CC1=NN(c2ccc(C)c(C)c2)C(=O)C1=CNNC(=O)c1ccc(O)cc1O` [compound 93], the “EC50” value was 0.0043 µg/mL and the “Efficacy (%) (maximal growth rate)” value is listed as 84%. Regarding `CC1=NN(c2cccc(C(F)(F)F)c2)C(=O)C1=C(C)NNC(=O)c1cc2ccccc2cc1O` [compound 47], the “EC50” value came out at 0.19 µg/mL and the “Efficacy (%) (maximal growth rate)” value is 48%. As for `CC1=NN(c2ccc(I)cc2)C(=O)C1=C(C)NNC(=O)c1ccccc1[N+](=O)[O-]` [compound 42], the “EC50” value stood at 0.25 µg/mL and the “Efficacy (%) (maximal growth rate)” value worked out at 71%. In the case of `CC1=NN(c2ccccc2)C(=O)C1=C(C)NNC(=O)c1ccc(O)cc1O` [compound 19], the “EC50” value was determined as 0.014 µg/mL and the “Efficacy (%) (maximal growth rate)” value is recorded as 100%. With `CC1=NN(c2cccc([N+](=O)[O-])c2)C(=O)C1=C(C)NNC(=O)c1ccc(C(C)(C)C)cc1` [compound 88], the “EC50” value is 0.13 µg/mL and the “Efficacy (%) (maximal growth rate)” value is 70%. `CC1=NN(c2ccc(Cl)c(Cl)c2)C(=O)C1=C(C)NNC(=O)c1ccc([N+](=O)[O-])cc1` [compound 68]: the “EC50” value was 0.21 µg/mL and the “Efficacy (%) (maximal growth rate)” value turned out to be 26%. Take `CC1=NN(c2ccc(C(C)(C)C)cc2)C(=O)C1=C(C)NNC(=O)c1cccc([N+](=O)[O-])c1` [compound 15]: the “EC50” value was 0.023 µg/mL and the “Efficacy (%) (maximal growth rate)” value is reported as 109%.

For `CC1=NN(c2ccc(C)c(C)c2)C(=O)C1=C(C)NNC(=O)c1ccc(C(F)(F)F)cc1` [compound 75], the “EC50” value was determined as 0.063 µg/mL and the “Efficacy (%) (maximal growth rate)” value is reported as 89%. As for `CC1=NN(c2cccc(C(F)(F)F)c2)C(=O)C1=C(C)NNC(=O)c1ccc(O)cc1O` [compound 48], the “EC50” value worked out at 0.008 µg/mL and the “Efficacy (%) (maximal growth rate)” value worked out at 62%. Turning to `CC1=NN(c2ccccc2)C(=O)C1=C(C)NNC(=O)c1cccc([N+](=O)[O-])c1` [compound 14], the “EC50” value is 0.072 µg/mL and the “Efficacy (%) (maximal growth rate)” value came to 91%.

With `CC1=NN(c2ccc(I)cc2)C(=O)C1=C(C)NNC(=O)c1ccccc1O` [compound 38], the “EC50” value stood at 0.036 µg/mL and the “Efficacy (%) (maximal growth rate)” value turned out to be 93%.
